Solubility data for two compounds are collected here from patent US20080262054A1, “Pharmaceutical Composition Containing Thiazolidinedione Compound” (priority 2005, published 2008).

A short description of data set [1]: Dissolution Rate Test 1 of Compound A (Test Example 1). It is filed as physicochemical. The conditions noted are these: JP first fluid, 37° C. The method, then: About 40 mg of Compound A or a monohydrate of Compound A and a formulation excipient [one excipient is selected from the following excipients: 377.6 mg of lactose (Borculo Domo Ingredients), 78.0 mg of croscarmellose sodium (Ac-Di-Sol, FMC International), 15.6 mg of hydroxypropyl cellulose (HPC-L, Nippon Soda Co., Ltd.), 5.2 mg of magnesium stearate (NOF Corp.) and 0.112 mg of yellow ferric oxide (Kishi Kasei Co., Ltd.)] were added to 200 ml of Japanese Pharmacopoeia (JP) first fluid (7.0 ml of hydrochloric acid and water added to 2.0 g of sodium chloride followed by dissolving and bringing to a volume of 100 ml, normally used as a test liquid that imitates disintegration and elution of chemicals in the stomach) followed by stirring with a stirrer at 37° C. in a 300 ml conical beaker. 10 ml-samples were collected after 30 minutes, 1 hour, 3 hours and 6 hours followed by filtration using Acrodisk LC13 (PVDF, Gelman Science, Inc.). After discarding the first 3 ml, the next 7 ml were removed into a test tube. 5 ml of the sample in the test tube was taken with a whole pipette and transferred to a test tube containing 2 ml of methanol followed by mixing.
(§1) Quantification was carried out using HPLC, and solubility was determined from a calibration curve generated according to the method described below.
The calibration curve was generated by preparing methanol standard solutions of Compound A at concentrations of 400, 100 and 20 μg/ml, followed by the addition of 5 ml of JP first fluid to 2 ml of each standard solution, mixing and quantifying by HPLC.
Analytical column: L-column ODS (4.6 mm ID×15 cm, Chemicals Evaluation and Research Institute, Japan)
Mobile phase: 0.01 mol/1 mixture of acetate buffer (pH 5.0) and acetonitrile (13:7)
Column temperature: 40° C.
Detector: Ultraviolet absorption spectrophotometer (measuring wavelength: 290 nm)

The nature of data set [2]: Dissolution Rate Test 2 of Compound A (Test Example 2). The data set is classed as physicochemical. The conditions noted are these: JP first fluid, 37° C., subsequently to 1 hour (3 hours, 6 hours); FIG. 2. The method, then: Dissolution Rate Test 2 of 5-{4-[(6-methoxy-1-methyl-1H-benzimidazol-2-yl)methoxy]benzyl}thiazolidine-2,4-dione hydrochloride (Compound A) About 40 mg of Compound A or a monohydrate of Compound A and a formulation excipient [one excipient is selected from the following excipients: 23.9 mg of OPADRY II, 17.2 mg of polyvinyl alcohol (GOHSENOL GL-05, Nippon Synthetic Chemical Industry Co., Ltd.), and 23.9 mg of OPAGLOS 2] were added to 200 ml of Japanese Pharmacopoeia (JP) first fluid (7.0 ml of hydrochloric acid and water added to 2.0 g of sodium chloride followed by dissolving and bringing to a volume of 100 ml, normally used as a test liquid that imitates disintegration and elution of chemicals in the stomach) followed by stirring with a stirrer at 37° C. in a 300 ml conical beaker. 10 ml-samples were collected after 30 minutes, 1 hour, 3 hours and 6 hours followed by filtration using Acrodisk LC13 (PVDF, Gelman Science, Inc.). […]
as §1
The calibration curve was generated by preparing methanol standard solutions of Compound A at concentrations of 400, 100 and 20 μg/ml, followed by the addition of 5 ml of JP first fluid to 2 ml of each standard solution, mixing and quantifying by HPLC. […]

Where [3] appears, read: stirring, samples after 30 minutes, 1 hour, 3 hours and 6 hours, HPLC, FIG. 1.

Counter-ions that a name gives are not always drawn.

As for `COc1ccc2nc(COc3ccc(CC4SC(=O)NC4=O)cc3)n(C)c2c1` (stereo not shown) [Compound A, 5-{4-[(6-methoxy-1-methyl-1H-benzimidazol-2-yl)methoxy]benzyl}thiazolidine-2,4-dione hydrochloride], the solubility result in data set [1] (setting [3]) was “decrease over time”; in data set [1] (subsequently to 1 hour (3 hours, 6 hours)), “decreased rapidly”; in data set [2], “decreased rapidly”.
As to `COc1ccc2nc(COc3ccc(CC4SC(=O)NC4=O)cc3)n(C)c2c1.Cl.O` (stereo not shown) [monohydrate, 5-{4-[(6-methoxy-1-methyl-1H-benzimidazol-2-yl)methoxy]benzyl}thiazolidine-2,4-dione hydrochloride (Compound A) monohydrate], the solubility entry in data set [1] (setting [3]) is “extremely low”.
